Earlier results, collected in patent US20020102237A1, “Compositions and methods for hepatitis treatment” (priority 2000, published 2002).

Tested on: hepatitis C infection

| Substance | response rate (long term efficacy) (chronic hepatitis C, interferon with or without Ribavirin) | patients responding with normalization of alanine aminotransferase (ALT) (hepatitis C infection, 3 million units subcutaneously three times weekly for six months) | relapse of responders upon discontinuation of therapy (hepatitis C infection, after standard six-month therapy) |
| --- | --- | --- | --- |
| interferon | about 25% | – | – |
| alpha-interferon | – | approximately 50% | half of those responding relapse |
